Results reported in ChEMBL document CHEMBL1130833, “Inhibition of electric eel acetylcholinesterase by porphin compounds” (Bioorg Med Chem Lett, 1998).

Molecular target: Acetylcholinesterase (Electrophorus electricus, UniProt O42275)
Assay: Compound was evaluated for inhibitory constant for the electric eel Acetylcholinesterase (AChE)

Sequence of Acetylcholinesterase (O42275 whole entry): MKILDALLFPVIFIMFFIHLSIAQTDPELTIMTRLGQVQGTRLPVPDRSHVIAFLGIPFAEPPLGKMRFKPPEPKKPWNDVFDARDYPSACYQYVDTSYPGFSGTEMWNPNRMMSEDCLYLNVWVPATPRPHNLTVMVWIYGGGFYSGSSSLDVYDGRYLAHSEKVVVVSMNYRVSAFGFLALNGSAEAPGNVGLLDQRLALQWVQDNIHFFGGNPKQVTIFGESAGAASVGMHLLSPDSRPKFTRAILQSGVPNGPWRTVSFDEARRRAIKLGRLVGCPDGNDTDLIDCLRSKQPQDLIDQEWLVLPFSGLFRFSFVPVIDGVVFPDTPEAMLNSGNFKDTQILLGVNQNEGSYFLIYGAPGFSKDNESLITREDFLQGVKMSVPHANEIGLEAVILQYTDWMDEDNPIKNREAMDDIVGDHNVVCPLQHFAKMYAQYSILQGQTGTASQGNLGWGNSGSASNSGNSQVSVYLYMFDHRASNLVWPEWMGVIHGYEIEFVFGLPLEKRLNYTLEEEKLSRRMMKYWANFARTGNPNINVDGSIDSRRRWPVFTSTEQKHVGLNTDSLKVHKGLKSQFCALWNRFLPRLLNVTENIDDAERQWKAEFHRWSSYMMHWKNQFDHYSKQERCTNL

**Q.** For `C1=Cc2nc1c(-c1ccccc1)c1ccc([nH]1)c(-c1ccccc1)c1nc(c(-c3ccccc3)c3ccc([nH]3)c2-c2ccccc2)C=C1`, which Ki (tested as the Zn salt or complex) is on record?
**A.** The Ki was 5390 nM.

**Q.** For `Fc1cccc(F)c1-c1c2nc(c(-c3c(F)cccc3F)c3ccc([nH]3)c(-c3c(F)cccc3F)c3ccc([nH]3)c(-c3c(F)cccc3F)c3nc1C=C3)C=C2`, which Ki is on record?
**A.** The Ki was 12 nM.

**Q.** For `Fc1ccc(-c2c3nc(c(-c4ccc(F)cc4F)c4ccc([nH]4)c(-c4ccc(F)cc4F)c4ccc([nH]4)c(-c4ccc(F)cc4F)c4nc2C=C4)C=C3)c(F)c1`, which Ki is on record?
**A.** Its Ki is 5 nM.
